# Legend:
# [1] = tested on: NIDDM male mice (C57BLKS/J-m+/+Lepr db); assay: Glucose reduction in db/db mouse model, oral once daily for 7 days (Example 111); assay type: in vivo; conditions: for Serum Glucose % Pre-Treatment Baseline: 90 min post-dosing
# Experimental: Non-insulin dependent diabetic mellitus (NIDDM) male mice (C57BLKS/J-m+/+Lepr db) weighing 60±5 g (12 weeks of age) provided by the Institute for Animal Reproduction (IAR, Japan) were used. […] The animals were housed in Individually Ventilated Cages Racks (IVC Racks, 36 Mini Isolator systems) throughout the experiment. Each APEC cage was autoclave sterilized and contained 4 mice and then maintained in a hygienic environment under controlled temperature (22-24° C.) and humidity (60-70%) with 12-hour light/dark cycles. The animals were given sterilized lab Chow and sterilized distilled water ad libitum.
# Sterilized distilled water, ELISA Insulin Assay Kit (SPI bio, France), glucose (Merck), Glucose-HA assay kit (Wako, Japan), methylcellulose (Sigma), and troglitazone (BioMOL).
# Compound 1 was suspended in 0.5% methylcellulose. Compound 1 at 100, 50 and 30 mg/kg as well as vehicle were administered to NIDDM male mice weighing 60±5 g (11-12 weeks of age), orally once daily for 7 consecutive days starting immediately after the first blood sampling (pre-treatment on day 1). Blood sampling was repeated at 90 minutes post-dosing on day 3 and day 7. The dosing volume was 10 ml/kg. Serum glucose level in the pre- and post-treatment periods were determined by enzymatic (Mutaratase-GOD) method. Post-treatment serum glucose value expressed in percentage of respective pre-treatment values were calculated and unpaired Student's t test was then applied for comparison between compound treated and vehicle control groups. Differences were considered significant at P<0.05. In addition, the liver weight and body weight were recorded to determine the ratio of liver to body weight.
# [2] = tested on: Male SD rats; conditions: rat, in vivo
# Experimental: Male SD rats weighing 350-420 g were anesthetized with 2-3% isoflurane. The femoral artery and vein were catheterized and connected to a mean arterial blood pressure (MAP) and heart rate (HR) monitor and a continuous intravenous infusion pump. Under anesthesia, MAP and HR were recorded 10-20 minutes prior to and during the continuous intravenous infusion of test compounds for 60-70 minutes. The infusion rate, 0.14-0.16 ml/kg/minute, was determined on the basis of vehicle tolerance. The infusion doses, 1.0-1.25 mg/kg/minute, were selected, depending upon the solubility of the compound and effects on MAP and HR of the positive control compounds at the lethal dose. The maximal effective dose or lethal dose of test compounds were determined accordingly.
# [3] = tested on: obese diabetic mice (C57BL/6 ob/ob); assay: Glucose reduction in ob/ob mouse model (Example 113); assay type: in vivo; conditions: 3.5 hours after administration
# Experimental: Genetically mutated obese diabetic mice (C57BL/6 ob/ob) were purchased from the Jackson Laboratory (Bar Harbor, Me.). Eight weeks old male animals were employed in this study. After acclimation, mice were randomized for equivalent mean blood glucose on day 0 with eight mice each group, and received either vehicle or Compound 1 in 0.5% methylcellulose (ps400) by oral gavage once daily for 8 consecutive days. Plasma glucose was monitored 3.5 hours after administration of test compound on day 3 and 8.
# [4] = tested on: C57BLKS/J db/db male mice; assay: Glucose reduction, Compound 1 in combination with rosiglitazone, db/db mice (Example 116, FIG. 2); assay type: in vivo, mouse; conditions: Compound 1 alone, 50 mg/kg
# [5] = tested on: C57BLKS/J db/db male mice; assay: Glucose, insulin and triglyceride reduction in db/db mouse model, 10 days (Example 115); assay type: in vivo; conditions: orally once daily for 10 days
# Experimental: Compound 1 was evaluated for its effect on plasma glucose, triglyceride and insulin in C57BLKS/J db/db male mice.
# Compound 1 or vehicle was administered orally once daily for 10 consecutive days. Animals were divided into either vehicle or treatment groups (n=8 per group), and blood glucose, serum triglyceride and insulin were tested at the end of assay by Ani Lytic Inc (Baltimore, Md.).
structure (smiles),measurement,setting,value
"CCOC(=O)C1=C(COCCN)NC2=C(C(=O)CC(C)(C)C2)C1c1ccccc1Cl (centres unmarked) [Compound 1, 2-(2-amino-ethoxymethyl)-4-(2-chloro-phenyl)-7,7-dimethyl-5-oxo-1,4,5,6,7,8-Hexahydro-quinoline-3-carboxylic acid ethyl ester]",Serum Glucose % Pre-Treatment Baseline,"[1]; Day 3, 30 mg/kg orally once daily",96.7 ± 2.2 %
same,Serum Glucose % Pre-Treatment Baseline,"[1]; Day 3, 50 mg/kg orally once daily",86.5 ± 3.5 %
same,Serum Glucose % Pre-Treatment Baseline,"[1]; Day 3, 100 mg/kg orally once daily",85.6 ± 2.4 %
same,Serum Glucose % Pre-Treatment Baseline,"[1]; Day 7, 30 mg/kg orally once daily",91.6 ± 3.7%
same,Serum Glucose % Pre-Treatment Baseline,"[1]; Day 7, 50 mg/kg orally once daily",82.9 ± 4.4 %
same,Serum Glucose % Pre-Treatment Baseline,"[1]; Day 7, 100 mg/kg orally once daily",80.9 ± 3.3 %
same,liver weight relative to body weight,"[1]; any treatment group (30, 50, 100 mg/kg, 7 days) vs vehicle control",No significant difference
same,Lethal Dose,[2],>70 mg/kg
same,percent normalized reduction of serum glucose vs vehicle,"[3]; day 3, 50 mg/kg oral gavage once daily",30%
same,percent normalized reduction of serum glucose vs vehicle,"[3]; day 8, 50 mg/kg oral gavage once daily",22.3%
same,"blood glucose level, monotherapy",[4],reduced glucose levels
same,"% Reduction (relative to vehicle), Glucose",[5],14%
same,"% Reduction (relative to vehicle), Insulin",[5],19%
same,"% Reduction (relative to vehicle), Triglyceride",[5],17%
same,Glucose,[5]; end of assay,327.50 mg/dL
same,Insulin,[5]; end of assay,11.32 ng/mL
same,Triglyceride,[5]; end of assay,336.13 mg/dL

# Source: US20050203119A1, “Dihydropyridine compounds for treating or preventing metabolic disorders” (priority 2003, published 2005)
